These results are taken from US20260209262A1, “MEMBRANE FILTRATION-ASSISTED SOLUTION PHASE OLIGONUCLEOTIDE SYNTHESIS” (EXACTMER LIMITED, priority 2022, published 2026).

Values after ≈ are worked out from the molar mass of the structure shown.

This data set is described as follows: Solubility of protected phosphoramidites in acetonitrile (aliquots added until a clear solution). It counts as physicochemical. As to conditions: for Solubility: 30° C. How it is done: A range of 5′-O-Dmtr-nucleoside-3′-O-(cyanoethyl-N, N-diisopropyl) phosphoramidites (FIG. 1. compounds 1-5) were studied to determine their suitability for solution-phase oligonucleotide synthesis in acetonitrile. Each compound (ca. 0.5 g) was placed in a flask with a magnetic stirrer immersed in an oil bath held at 30° C. To the flask was added acetonitrile (0.200 mL) and the contents stirred for 2 min. After this, further aliquots of acetonitrile (0.050 mL) were added, each time followed by stirring for 2 min. The volume of acetonitrile required to establish a clear solution was recorded. The solubility so determined is recorded in Table 1.

Take `COc1ccc(C(OC[C@H]2O[C@@H](n3ccc(=O)[nH]c3=O)[C@H](OC)[C@@H]2OP(OCCC#N)N(C(C)C)C(C)C)(c2ccccc2)c2ccc(OC)cc2)cc1` (some centres unmarked) [Compound 1a]: the “solubility in acetonitrile” value is 50 mM (≈ 38 mg/mL) and the “Solubility” value was 70 mM (≈ 53.3 mg/mL).

For `COc1ccc(C(OC[C@H]2O[C@@H](n3ccc(=O)n(C(=O)c4ccccc4)c3=O)[C@H](OC)[C@@H]2OP(OCCC#N)N(C(C)C)C(C)C)(c2ccccc2)c2ccc(OC)cc2)cc1` (some centres unmarked) [Compound 1b], the “Solubility” value is 1920 mM (≈ 1660 mg/mL).

Turning to `COc1ccc(C(OCC2OC(n3ccc(=O)n(C(=O)c4ccc(C(C)(C)C)cc4)c3=O)C(OC)C2OP(OCCC#N)N(C(C)C)C(C)C)(c2ccccc2)c2ccc(OC)cc2)cc1` (centres unmarked) [Compound 1c], the “Solubility” value was determined as 1740 mM (≈ 1600 mg/mL).

As for `COc1ccc(C(=O)n2c(=O)ccn(C3OC(COC(c4ccccc4)(c4ccc(OC)cc4)c4ccc(OC)cc4)C(OP(OCCC#N)N(C(C)C)C(C)C)C3OC)c2=O)cc1` (centres unmarked) [Compound 1d], the “Solubility” value stood at 2420 mM (≈ 2170 mg/mL).

`COc1ccc(C(OCC2OC(n3cc(C)c(=O)[nH]c3=O)CC2OP(OCCC#N)N(C(C)C)C(C)C)(c2ccccc2)c2ccc(OC)cc2)cc1` (centres unmarked) [Compound 2a]: the “Solubility” value is 1160 mM (≈ 864 mg/mL).

As for `COc1ccc(C(OC[C@H]2O[C@@H](n3cc(C)c(=O)n(C(=O)c4ccccc4)c3=O)C[C@@H]2OP(OCCC#N)N(C(C)C)C(C)C)(c2ccccc2)c2ccc(OC)cc2)cc1` (some centres unmarked) [Compound 2b], the “Solubility” value worked out at 1530 mM (≈ 1300 mg/mL). Also, under “relative to unprotected 2a”, the “increase in solubility by protection of N3” value is on record as “more than 30%”.

Take `COc1ccc(C(OC[C@H]2O[C@@H](n3ccc(NC(C)=O)nc3=O)[C@H](OC)[C@@H]2OP(OCCC#N)N(C(C)C)C(C)C)(c2ccccc2)c2ccc(OC)cc2)cc1` (some centres unmarked) [Compound 3]: the “Solubility” value was determined as 1300 mM (≈ 1040 mg/mL).

On to `COc1ccc(C(OCC2OC(n3cnc4c(NC(=O)c5ccccc5)ncnc43)C(OC)C2OP(OCCC#N)N(C(C)C)C(C)C)(c2ccccc2)c2ccc(OC)cc2)cc1` (centres unmarked) [Compound 4], for which the “Solubility” value is 1210 mM (≈ 1070 mg/mL).

For `COc1ccc(C(OCC2OC(n3cnc4c(=O)[nH]c(NC(=O)C(C)C)nc43)C(OC)C2OP(OCCC#N)N(C(C)C)C(C)C)(c2ccccc2)c2ccc(OC)cc2)cc1` (centres unmarked) [Compound 5], the “Solubility” value amounted to 1280 mM (≈ 1110 mg/mL).

One may read the Solubility as the dissolved amount per volume that the medium holds.
